What was measured:
Test in all cases: Z'-LYTE kinase panel
Type in all cases: biochemical
ACVR1B (ALK4) = molecular target: T1, ACVR1B (ALK4) (Homo sapiens, UniProt P36896)
T1 construct: purchased ThermoFisher (SelectScreen, Z'-LYTE)
T1 sequence (P36896 24-505): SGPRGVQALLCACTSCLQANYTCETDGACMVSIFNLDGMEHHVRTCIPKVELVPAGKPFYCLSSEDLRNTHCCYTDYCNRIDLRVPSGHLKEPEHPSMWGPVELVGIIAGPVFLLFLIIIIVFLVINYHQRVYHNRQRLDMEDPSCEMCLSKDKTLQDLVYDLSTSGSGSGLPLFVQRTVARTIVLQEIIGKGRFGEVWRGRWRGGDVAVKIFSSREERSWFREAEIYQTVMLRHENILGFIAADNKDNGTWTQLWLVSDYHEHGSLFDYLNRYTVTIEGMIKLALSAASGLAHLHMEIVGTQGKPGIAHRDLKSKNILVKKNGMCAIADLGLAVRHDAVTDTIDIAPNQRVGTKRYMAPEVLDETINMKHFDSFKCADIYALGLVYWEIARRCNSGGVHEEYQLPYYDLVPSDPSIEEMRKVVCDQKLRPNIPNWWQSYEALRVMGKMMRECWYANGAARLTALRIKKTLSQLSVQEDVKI
Summary of the method: (§1)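 Standard Z′-LYTE protocol applied. Compound fixed at 10 µM. Output: % inhibition. Panel size 225 kinases.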

CSNK2A1 (CK2 alpha 1) = molecular target: T2, CSNK2A1 (CK2 alpha 1) (Homo sapiens, UniProt P68400)
T2 construct: purchased ThermoFisher (SelectScreen, Z'-LYTE)
Summary of the method: as §1

DYRK3 = molecular target: T3, DYRK3 (Homo sapiens, UniProt O43781)
T3 construct: purchased ThermoFisher (SelectScreen, Z'-LYTE)
T3 sequence (O43781 1-588): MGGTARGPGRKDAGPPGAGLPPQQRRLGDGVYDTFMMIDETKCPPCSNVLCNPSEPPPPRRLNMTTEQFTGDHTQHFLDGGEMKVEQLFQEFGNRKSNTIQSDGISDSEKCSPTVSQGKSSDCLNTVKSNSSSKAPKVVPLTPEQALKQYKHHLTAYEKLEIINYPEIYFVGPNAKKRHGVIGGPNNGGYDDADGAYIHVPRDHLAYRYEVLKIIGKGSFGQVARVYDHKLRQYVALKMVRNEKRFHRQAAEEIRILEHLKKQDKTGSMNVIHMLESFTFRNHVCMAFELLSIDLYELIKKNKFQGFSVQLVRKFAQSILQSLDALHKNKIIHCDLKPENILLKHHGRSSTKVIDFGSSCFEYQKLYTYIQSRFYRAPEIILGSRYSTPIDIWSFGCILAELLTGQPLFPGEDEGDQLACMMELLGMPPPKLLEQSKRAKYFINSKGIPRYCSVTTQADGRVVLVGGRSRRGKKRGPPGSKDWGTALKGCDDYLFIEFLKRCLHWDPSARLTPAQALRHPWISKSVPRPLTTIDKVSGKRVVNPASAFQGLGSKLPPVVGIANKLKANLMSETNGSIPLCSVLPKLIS
Summary of the method: as §1

EPHA4 = molecular target: T4, EPHA4 (Homo sapiens, UniProt P54764)
T4 construct: purchased ThermoFisher (SelectScreen, Z'-LYTE)
Summary of the method: as §1

MAPK13 (p38 delta) = molecular target: T5, MAPK13 (p38 delta) (Homo sapiens, UniProt O15264)
T5 construct: purchased ThermoFisher (SelectScreen, Z'-LYTE)
T5 sequence (O15264 1-365): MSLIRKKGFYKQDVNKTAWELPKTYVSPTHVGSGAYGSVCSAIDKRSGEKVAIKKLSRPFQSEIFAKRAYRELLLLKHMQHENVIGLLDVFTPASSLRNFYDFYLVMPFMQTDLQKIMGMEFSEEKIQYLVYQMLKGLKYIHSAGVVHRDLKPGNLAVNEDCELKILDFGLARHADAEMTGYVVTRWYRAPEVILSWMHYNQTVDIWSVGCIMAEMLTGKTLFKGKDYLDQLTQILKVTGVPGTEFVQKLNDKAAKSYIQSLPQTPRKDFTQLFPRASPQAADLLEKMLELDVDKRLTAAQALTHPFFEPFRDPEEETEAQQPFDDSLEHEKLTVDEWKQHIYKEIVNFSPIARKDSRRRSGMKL
Summary of the method: as §1

MATK (HYL) = molecular target: T6, MATK (HYL) (Homo sapiens, UniProt P42679)
T6 construct: purchased ThermoFisher (SelectScreen, Z'-LYTE)
T6 sequence (P42679 1-507): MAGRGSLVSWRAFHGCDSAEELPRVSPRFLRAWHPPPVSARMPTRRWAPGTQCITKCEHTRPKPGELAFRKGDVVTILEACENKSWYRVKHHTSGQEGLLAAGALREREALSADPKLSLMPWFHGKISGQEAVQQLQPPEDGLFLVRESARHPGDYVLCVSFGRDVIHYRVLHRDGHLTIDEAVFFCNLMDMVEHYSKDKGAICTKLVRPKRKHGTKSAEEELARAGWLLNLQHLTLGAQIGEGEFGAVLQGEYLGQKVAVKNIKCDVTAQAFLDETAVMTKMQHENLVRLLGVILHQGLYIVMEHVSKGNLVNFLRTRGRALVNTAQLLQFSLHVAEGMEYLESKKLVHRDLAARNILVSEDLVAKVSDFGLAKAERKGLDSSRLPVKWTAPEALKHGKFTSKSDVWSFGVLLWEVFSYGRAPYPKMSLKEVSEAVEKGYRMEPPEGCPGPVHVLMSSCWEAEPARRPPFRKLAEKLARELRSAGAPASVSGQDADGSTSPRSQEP
Summary of the method: as §1

NTRK2 (TRKB) = molecular target: T7, NTRK2 (TRKB) (Homo sapiens, UniProt Q16620)
T7 construct: purchased ThermoFisher (SelectScreen, Z'-LYTE)
Summary of the method: as §1

PRKCZ (PKC zeta) = molecular target: T8, PRKCZ (PKC zeta) (Homo sapiens, UniProt Q05513)
T8 construct: purchased ThermoFisher (SelectScreen, Z'-LYTE)
T8 sequence (Q05513 1-592): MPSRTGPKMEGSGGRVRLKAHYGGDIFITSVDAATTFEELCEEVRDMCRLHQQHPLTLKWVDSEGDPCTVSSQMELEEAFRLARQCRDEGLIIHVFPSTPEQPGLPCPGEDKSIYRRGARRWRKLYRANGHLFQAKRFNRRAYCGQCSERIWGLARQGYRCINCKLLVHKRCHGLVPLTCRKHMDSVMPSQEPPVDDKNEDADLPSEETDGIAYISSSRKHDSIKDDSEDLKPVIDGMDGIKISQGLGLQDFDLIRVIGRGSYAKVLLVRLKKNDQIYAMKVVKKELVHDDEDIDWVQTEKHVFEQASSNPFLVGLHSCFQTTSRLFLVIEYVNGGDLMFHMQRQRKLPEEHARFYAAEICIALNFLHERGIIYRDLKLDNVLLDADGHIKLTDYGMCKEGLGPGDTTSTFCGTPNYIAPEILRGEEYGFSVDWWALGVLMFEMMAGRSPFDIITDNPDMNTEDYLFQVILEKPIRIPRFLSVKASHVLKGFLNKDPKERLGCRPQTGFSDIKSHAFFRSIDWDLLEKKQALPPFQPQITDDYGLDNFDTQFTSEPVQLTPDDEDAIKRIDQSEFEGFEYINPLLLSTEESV
Summary of the method: as §1

T7 sequence (Q16620 32-822): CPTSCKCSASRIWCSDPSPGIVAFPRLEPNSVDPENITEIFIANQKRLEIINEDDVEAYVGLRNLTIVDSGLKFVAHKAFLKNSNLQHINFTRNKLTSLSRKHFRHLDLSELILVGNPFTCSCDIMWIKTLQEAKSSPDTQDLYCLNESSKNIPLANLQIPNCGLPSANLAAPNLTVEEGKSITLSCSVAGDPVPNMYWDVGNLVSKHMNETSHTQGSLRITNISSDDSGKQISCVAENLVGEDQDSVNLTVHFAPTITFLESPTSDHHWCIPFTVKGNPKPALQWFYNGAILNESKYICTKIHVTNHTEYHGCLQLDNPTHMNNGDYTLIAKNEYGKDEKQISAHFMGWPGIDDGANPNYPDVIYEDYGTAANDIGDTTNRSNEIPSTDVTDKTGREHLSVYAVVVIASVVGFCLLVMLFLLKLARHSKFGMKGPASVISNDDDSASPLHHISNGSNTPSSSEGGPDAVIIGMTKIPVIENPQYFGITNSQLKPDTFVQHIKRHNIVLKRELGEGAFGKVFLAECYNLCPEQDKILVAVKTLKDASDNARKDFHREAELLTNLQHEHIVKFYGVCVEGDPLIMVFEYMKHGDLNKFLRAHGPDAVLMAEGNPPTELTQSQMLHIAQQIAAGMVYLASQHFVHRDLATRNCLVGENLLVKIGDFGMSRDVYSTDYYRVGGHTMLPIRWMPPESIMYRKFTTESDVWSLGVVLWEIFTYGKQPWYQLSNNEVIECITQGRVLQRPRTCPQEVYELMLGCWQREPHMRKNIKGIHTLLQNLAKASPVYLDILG
T4 sequence (P54764 20-986): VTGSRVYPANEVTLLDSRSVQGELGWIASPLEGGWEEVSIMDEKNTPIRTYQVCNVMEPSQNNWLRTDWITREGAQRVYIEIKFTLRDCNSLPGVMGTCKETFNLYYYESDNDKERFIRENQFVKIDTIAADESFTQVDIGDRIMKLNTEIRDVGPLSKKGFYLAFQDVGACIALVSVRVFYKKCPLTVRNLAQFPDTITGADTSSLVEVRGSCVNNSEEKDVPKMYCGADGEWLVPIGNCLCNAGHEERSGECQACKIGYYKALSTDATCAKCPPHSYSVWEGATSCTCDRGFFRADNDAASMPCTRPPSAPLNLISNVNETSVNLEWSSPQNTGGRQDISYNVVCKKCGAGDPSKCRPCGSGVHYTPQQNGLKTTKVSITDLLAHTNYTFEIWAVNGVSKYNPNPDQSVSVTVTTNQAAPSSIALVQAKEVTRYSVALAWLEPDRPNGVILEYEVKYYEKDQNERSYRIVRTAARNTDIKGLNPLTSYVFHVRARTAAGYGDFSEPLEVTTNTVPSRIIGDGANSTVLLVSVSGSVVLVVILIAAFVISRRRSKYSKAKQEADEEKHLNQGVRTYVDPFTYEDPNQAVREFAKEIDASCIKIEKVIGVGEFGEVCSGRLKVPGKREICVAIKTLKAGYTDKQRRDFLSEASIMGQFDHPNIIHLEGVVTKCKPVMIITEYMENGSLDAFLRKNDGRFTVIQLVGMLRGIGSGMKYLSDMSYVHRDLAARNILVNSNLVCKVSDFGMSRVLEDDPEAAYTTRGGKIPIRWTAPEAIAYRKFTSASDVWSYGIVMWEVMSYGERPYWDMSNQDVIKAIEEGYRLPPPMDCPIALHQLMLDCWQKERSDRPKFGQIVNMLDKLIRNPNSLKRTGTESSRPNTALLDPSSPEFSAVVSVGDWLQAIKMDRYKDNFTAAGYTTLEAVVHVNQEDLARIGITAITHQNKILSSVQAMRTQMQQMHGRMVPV
T2 sequence (P68400 whole entry): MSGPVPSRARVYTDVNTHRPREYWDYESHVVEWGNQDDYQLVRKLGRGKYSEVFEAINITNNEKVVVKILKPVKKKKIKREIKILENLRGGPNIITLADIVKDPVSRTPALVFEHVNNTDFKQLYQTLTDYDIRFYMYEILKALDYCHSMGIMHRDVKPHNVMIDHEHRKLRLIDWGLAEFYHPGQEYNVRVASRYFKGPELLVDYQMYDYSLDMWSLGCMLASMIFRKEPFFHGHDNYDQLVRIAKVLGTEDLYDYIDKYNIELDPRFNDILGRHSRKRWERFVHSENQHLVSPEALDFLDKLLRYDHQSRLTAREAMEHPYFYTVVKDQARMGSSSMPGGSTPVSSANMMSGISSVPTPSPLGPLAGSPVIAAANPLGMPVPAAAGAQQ

Row | Compound | inhibition at 10 µM (ACVR1B (ALK4)) [%] | inhibition at 10 µM (CSNK2A1 (CK2 alpha 1)) [%] | inhibition at 10 µM (DYRK3) [%] | inhibition at 10 µM (EPHA4) [%] | inhibition at 10 µM (MAPK13 (p38 delta)) [%] | inhibition at 10 µM (MATK (HYL)) [%] | inhibition at 10 µM (NTRK2 (TRKB)) [%] | inhibition at 10 µM (PRKCZ (PKC zeta)) [%] | ACVR1B (ALK4) % Inhibition (ACVR1B (ALK4); 10 µM compound, ATP Km app) [%] | CSNK2A1 (CK2 alpha 1) % Inhibition (CSNK2A1 (CK2 alpha 1); 10 µM compound, ATP Km app) [%] | DYRK3 % Inhibition (DYRK3; 10 µM compound, ATP Km app) [%] | EPHA4 % Inhibition (EPHA4; 10 µM compound, ATP Km app) [%] | MAPK13 (p38 delta) % Inhibition (MAPK13 (p38 delta); 10 µM compound, ATP Km app) [%] | MATK (HYL) % Inhibition (MATK (HYL); 10 µM compound, ATP Km app) [%] | NTRK2 (TRKB) % Inhibition (NTRK2 (TRKB); 10 µM compound, ATP Km app) [%] | PRKCZ (PKC zeta) % Inhibition (PRKCZ (PKC zeta); 10 µM compound, ATP Km app) [%]
1 | Cc1cc(Nc2nc(N)nn2C(=O)NC(C)C)ccc1Cl [Compound 5] | -8 | 8 | 0.141 | 10 | -0.07 | -1.63 | 29 | 4 | – | – | – | – | – | – | – | –
2 | Cc1ncc(-c2nc(Nc3ccc(C(=O)NCCN4CCCCC4)cc3)ncc2F)n1C(C)C [Compound 3] | 52 | 40 | 93 | 55 | 65 | 0.522 | 87 | 18 | – | – | – | – | – | – | – | –
3 | XMD8-92 [Compound 2, reference compound] | – | – | – | – | – | – | – | – | -2.75 | 8 | 31 | 19 | 1.54 | 2.46 | 81 | -2.33

Source: paper PMC4854315, “Discovery of a novel allosteric inhibitor-binding site in ERK5: comparison with the canonical kinase hinge ATP-binding site” (Acta Crystallographica. Section D, Structural Biology, 2016)
